Read-outs that look alike come from different tables or passages of the source. Marks after values point to notes of the source that are not given here.
Assays:
[1] = test system: Phytophthora infestans; format: in vivo
[2] = test system: Podosphaera xanthii; test: Host plant efficacy assay (cucumber); format: in vivo; conditions: in vivo
[3] = test system: Erysiphe diffusa; test: Host plant efficacy assay (soybean); format: in vivo; conditions: in vivo
[4] = test system: Cochliobolus miyabeanus; test: In vitro growth on cervinomycin-amended growth media; format: cell-based
[5] = test system: Zymoseptoria tritici; test: Host plant efficacy assay (wheat); format: in vivo; conditions: in vivo
[6] = test system: Plasmospora viticola; test: Efficacy on grape plants infected with Plasmospora viticola; conditions: for % control Plasmospora viticola 1DAI: 1 day after infection; for % control Plasmospora viticola 1DAI / % control Plasmospora viticola 1DB1 / % control Plasmospora viticola 7DBI: grape plants; for % control Plasmospora viticola 1DB1: 1 day before infection; for % control Plasmospora viticola 7DBI: 7 days before infection
Text: Treatments occurred at either 1 day before infection (“1 DBI”), 7 days before infection (“7 DBI”) or 1 day after infection (“1 DAI”).

[7] = test system: Fusarium graminearum; format: cell-based
[8] = test system: Magnaporthe oryzae; format: in vivo
[9] = test system: Pyrenophora teres; test: Host plant efficacy assay (barley); format: in vivo; conditions: in vivo
[10] = test system: Phakopsora pachyrhizi; test: Host plant efficacy assay (soybean); format: in vivo; conditions: in vivo
[11] = test system: Pseudoperonospora cubensis; test: Foliar application, inoculated plants, disease severity; conditions: for Disease severity P. cubensis Oct. 20, 2020: carrier control severity 70; for Disease severity P. cubensis Oct. 27, 2020: carrier control severity 79; for Disease severity P. cubensis Jul. 28, 2020: carrier control severity 67; for Disease severity P. cubensis Jul. 21, 2020: carrier control severity 100
Experimental: (§1) Biological efficacy assays utilizing cervinomycins were conducted on Pseudoperonospora cubensis and Botrytis cinerea. […] Once plants had dried they were inoculated with the pathogen, then were stored in a controlled climate chamber under high humidity for 4-6 days. At the end of the experiment disease severity was determined based on the percentage of plant tissue that was visually symptomatic.

[12] = test system: Botrytis cinerea; test: as above; conditions: for Disease severity B. cinerea: carrier control severity 63.3; for percent control B. cinerea: vs carrier control
Experimental: as §1

[13] = 1 ppm foliar, vs carrier control
[14] = 3 ppm foliar, vs carrier control
[15] = 6 ppm foliar, vs carrier control
[16] = 12 ppm foliar, vs carrier control
[17] = 25 ppm foliar, vs carrier control
[18] = 30 ppm foliar, vs carrier control
[19] = 50 ppm foliar, vs carrier control

COc1cc2oc3c(O)c4ccc5cc6c(c(O)c5c4c(O)c3c(=O)c2cc1OC)C(=O)N1CCOC1(C)C6 (centres unmarked) [Cervinomycin A1, cervinomycin A1]
% control Phytophthora infestans Tomato 1DBI ([1]; 11.3 ppm): 0 (0 (about 0%))
% control Phytophthora infestans Tomato 1DBI ([1]; 45 ppm): 0 (0 (about 0%))
% control Phytophthora infestans Tomato 1DBI ([1]; 180 ppm): 3 (3 (about 70%))
% control Podosphaera xanthii Cucumber 1DBI [2]: 0 (key: 5 (about 100%); 4 (about 90%); 3 (about 70%); 2 (about 50%); 1 (about 25%); 0 (about 0%))
% control Erysiphe diffusa Soybean 2DAI [3]: 0 (key: 5 (about 100%); 4 (about 90%); 3 (about 70%); 2 (about 50%); 1 (about 25%); 0 (about 0%))
% Control Cochliobolus miyabeanus ([4]; 0.004 ppm in growth media): 1%
% Control Cochliobolus miyabeanus ([4]; 0.016 ppm in growth media): 2%
% Control Cochliobolus miyabeanus ([4]; 0.063 ppm in growth media): 29%
% Control Cochliobolus miyabeanus ([4]; 0.25 ppm in growth media): 59%
% Control Cochliobolus miyabeanus ([4]; 1 ppm in growth media): 74%
% control Zymoseptoria tritici Wheat 3DAI [5]: 0 (key: 5 (about 100%); 4 (about 90%); 3 (about 70%); 2 (about 50%); 1 (about 25%); 0 (about 0%))
% control Zymoseptoria tritici Wheat 4DBI [5]: 0 (key: 5 (about 100%); 4 (about 90%); 3 (about 70%); 2 (about 50%); 1 (about 25%); 0 (about 0%))
control of P. viticiola (summary of Table 1) ([6]; 13-800 ppm): significant control
% control Plasmospora viticola 1DAI ([6]; 13 ppm): 0%
% control Plasmospora viticola 1DB1 ([6]; 13 ppm): 100%
% control Plasmospora viticola 7DBI ([6]; 13 ppm): 80%
% control Plasmospora viticola 1DAI ([6]; 50 ppm): 0%
% control Plasmospora viticola 1DB1 ([6]; 50 ppm): 100%
% control Plasmospora viticola 1DAI ([6]; 200 ppm): 0%
% control Plasmospora viticola 1DB1 ([6]; 200 ppm): 100%
% control Plasmospora viticola 7DBI ([6]; 200 ppm): 100%
% control Plasmospora viticola 1DAI ([6]; 800 ppm): 7%
% control Plasmospora viticola 1DB1 ([6]; 800 ppm): 100%
% control Plasmospora viticola 7DBI ([6]; 800 ppm): 100%
% Control Fusarium graminearum ([7]; 0.004 ppm in growth media): 4%
% Control Fusarium graminearum ([7]; 0.016 ppm in growth media): 6%
% Control Fusarium graminearum ([7]; 0.063 ppm in growth media): 7%
% Control Fusarium graminearum ([7]; 0.25 ppm in growth media): 20%
% Control Fusarium graminearum ([7]; 1 ppm in growth media): 31%
% control Magnaporthe oryzae Rice 1DBI ([8]; 11.3 ppm): 0 (0 (about 0%))
% control Magnaporthe oryzae Rice 1DBI ([8]; 45 ppm): 0 (0 (about 0%))
% control Magnaporthe oryzae Rice 1DBI ([8]; 180 ppm): 0 (0 (about 0%))
% control Pyrenophora teres Barley 1DBI [9]: 0 (key: 5 (about 100%); 4 (about 90%); 3 (about 70%); 2 (about 50%); 1 (about 25%); 0 (about 0%))
% control Phakopsora pachyrhizi Soybean 3DAI [10]: 0 (key: 5 (about 100%); 4 (about 90%); 3 (about 70%); 2 (about 50%); 1 (about 25%); 0 (about 0%))
Disease severity P. cubensis Oct. 20, 2020 ([11]; 1 ppm foliar): 13%
Disease severity P. cubensis Oct. 27, 2020 ([11]; 1 ppm foliar): 2%
percent control P. cubensis Oct. 20, 2020 [11, 13]: (81%)*
percent control P. cubensis Oct. 27, 2020 [11, 13]: 98%
Disease severity P. cubensis Jul. 28, 2020 ([11]; 3 ppm foliar): 47%
Disease severity P. cubensis Oct. 20, 2020 ([11]; 3 ppm foliar): 3%
Disease severity P. cubensis Oct. 27, 2020 ([11]; 3 ppm foliar): 1%
percent control P. cubensis Jul. 28, 2020 [11, 14]: 30%
percent control P. cubensis Oct. 20, 2020 [11, 14]: (96%)
percent control P. cubensis Oct. 27, 2020 [11, 14]: 99%
Disease severity P. cubensis Oct. 20, 2020 ([11]; 6 ppm foliar): 2%
Disease severity P. cubensis Oct. 27, 2020 ([11]; 6 ppm foliar): 1%
percent control P. cubensis Oct. 20, 2020 [11, 15]: (97%)
percent control P. cubensis Oct. 27, 2020 [11, 15]: 99%
Disease severity P. cubensis Jul. 28, 2020 ([11]; 7.5 ppm foliar): 43%
percent control P. cubensis Jul. 28, 2020 ([11]; 7.5 ppm foliar, vs carrier control): 36%
Disease severity P. cubensis Oct. 20, 2020 ([11]; 12 ppm foliar): 1%
Disease severity P. cubensis Oct. 27, 2020 ([11]; 12 ppm foliar): 2%
percent control P. cubensis Oct. 20, 2020 [11, 16]: (99%)
percent control P. cubensis Oct. 27, 2020 [11, 16]: 98%
Disease severity P. cubensis Jul. 28, 2020 ([11]; 15 ppm foliar): 16%
percent control P. cubensis Jul. 28, 2020 ([11]; 15 ppm foliar, vs carrier control): 76%
Disease severity P. cubensis Oct. 20, 2020 ([11]; 25 ppm foliar): 1%
Disease severity P. cubensis Oct. 27, 2020 ([11]; 25 ppm foliar): 1%
percent control P. cubensis Oct. 20, 2020 [11, 17]: (99%)
percent control P. cubensis Oct. 27, 2020 [11, 17]: 99%
Disease severity P. cubensis Jul. 28, 2020 ([11]; 30 ppm foliar): 7%
Disease severity P. cubensis Jul. 14, 2020 ([11]; 30 ppm foliar, carrier control severity 98): 25%
Disease severity P. cubensis Jul. 21, 2020 ([11]; 30 ppm foliar): 3%
percent control P. cubensis Jul. 14, 2020 [11, 18]: 74%
percent control P. cubensis Jul. 21, 2020 [11, 18]: 97%
percent control P. cubensis Jul. 28, 2020 [11, 18]: 89%
Disease severity P. cubensis Oct. 20, 2020 ([11]; 50 ppm foliar): 0.4%
Disease severity P. cubensis Oct. 27, 2020 ([11]; 50 ppm foliar): 1%
percent control P. cubensis Oct. 20, 2020 [11, 19]: (99%)
percent control P. cubensis Oct. 27, 2020 [11, 19]: 99%
Disease severity P. cubensis Jul. 21, 2020 ([11]; 192 ppm foliar): 3%
percent control P. cubensis Jul. 21, 2020 ([11]; 192 ppm foliar, vs carrier control): 97%
control of Pseudoperonospora cubensis (summary of Table 3) ([11]; foliar application): significant control
Disease severity B. cinerea ([12]; 1 ppm foliar): 31%
percent control B. cinerea ([12]; 1 ppm foliar): (51%)
Disease severity B. cinerea ([12]; 3 ppm foliar): 17%
percent control B. cinerea ([12]; 3 ppm foliar): (74%)
Disease severity B. cinerea ([12]; 6 ppm foliar): 9%
percent control B. cinerea ([12]; 6 ppm foliar): (85%)
Disease severity B. cinerea ([12]; 12 ppm foliar): 2%
percent control B. cinerea ([12]; 12 ppm foliar): (96%)
Disease severity B. cinerea ([12]; 25 ppm foliar): 2%
percent control B. cinerea ([12]; 25 ppm foliar): (96%)
Disease severity B. cinerea ([12]; 50 ppm foliar): 1%
percent control B. cinerea ([12]; 50 ppm foliar): (98%)
control of Botrytis cinerea (summary of Table 3) ([12]; foliar application): significant control

Source: patent US20240215582A1, “METHODS OF CONTROLLING PLANT PATHOGENS” (Valent BioSciences LLC, priority 2022, published 2024)
